In ChEMBL document CHEMBL1201862, “PubChem BioAssay data set” (2004):
The source made the active and inactive calls.

Tests used:
[1] = target: Ion channel NompC (Danio rerio, UniProt Q7T1G6); assay: Fluorescence counterscreen assay for TRPML3 agonists: dose response cell-based high-throughput screening assay to identify agonists of the transient receptor potential channel N1 (TRPN1). [Related pubchem assays: 1526, 1424, 1448 ]; format: functional
[2] = target: T1, Mucolipin-3 (Homo sapiens, UniProt Q8TDD5); assay: Dose response cell-based high-throughput screening assay for agonists of the transient receptor potential channel ML3 (TRPML3). [Related pubchem assays: 1526, 1424, 1448 ]; format: functional
T1 sequence (Q8TDD5 whole entry): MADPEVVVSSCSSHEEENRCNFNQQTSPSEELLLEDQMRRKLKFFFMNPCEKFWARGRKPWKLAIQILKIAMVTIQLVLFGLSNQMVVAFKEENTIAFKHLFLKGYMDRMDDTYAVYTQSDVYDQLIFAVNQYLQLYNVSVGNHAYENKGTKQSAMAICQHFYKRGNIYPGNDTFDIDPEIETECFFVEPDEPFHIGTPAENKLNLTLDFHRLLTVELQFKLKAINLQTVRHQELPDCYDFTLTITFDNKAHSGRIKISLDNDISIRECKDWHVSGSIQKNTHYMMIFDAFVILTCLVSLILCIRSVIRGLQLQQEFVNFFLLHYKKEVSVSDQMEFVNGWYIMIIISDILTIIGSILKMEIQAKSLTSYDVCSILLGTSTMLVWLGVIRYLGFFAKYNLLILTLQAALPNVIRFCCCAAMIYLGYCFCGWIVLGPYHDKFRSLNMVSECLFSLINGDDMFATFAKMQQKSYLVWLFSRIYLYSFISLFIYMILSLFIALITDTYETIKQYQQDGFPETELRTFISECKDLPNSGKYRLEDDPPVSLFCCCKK

[3] = DRD fibroblast viability loss – cell-based, non-viral oncogenic, luminescence, dose response (AID 1934); format: functional; conditions: Homo sapiens
[4] = system: BJ; assay: BJ-TERT fibroblast viability loss – cell-based, RAS-independent, luminescence, dose response (AID 1933); format: functional; conditions: Homo sapiens
[5] = system: BJ; assay: cells; format: functional, cell-based; conditions: Homo sapiens
[6] = system: BJ; assay: BJ-TERT-LT-ST fibroblast viability loss – cell-based, RAS-independent, luminescence, dose response (AID 1935); format: functional; conditions: Homo sapiens;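 also: BJ fibroblasts immortalized with TERT plus LT and ST oncogenes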
[7] = target: Voltage-dependent T-type calcium channel subunit alpha-1H (Homo sapiens, UniProt O95180); format: functional;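 also: channel activity triggered by adding a high calcium stimulation buffer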
[8] = target: Beta-galactosidase (Escherichia coli, UniProt Q8VNN2); assay: detection-enzyme interference by beta-gal modulators – biochemical, E. coli enzyme, set 3, artefact control for CCR6 antagonist project, dose response (AID 504712); format: functional
[9] = target: T2, Heat shock factor protein 1 (Mus musculus, UniProt P38532); assay: enhancement of HSF1-driven luciferase signal – cell-based, NIH3T3, luminescence, dose retest, confirmation (AID 435004); format: functional;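 also: stress induced by proteasome inhibitor MG132 added 30 min after compound; luciferase reporter driven by HSF1 response element in NIH3T3 cells; actives raise luminescence as potentiators of the MG132 stress response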
T2 sequence (P38532 whole entry): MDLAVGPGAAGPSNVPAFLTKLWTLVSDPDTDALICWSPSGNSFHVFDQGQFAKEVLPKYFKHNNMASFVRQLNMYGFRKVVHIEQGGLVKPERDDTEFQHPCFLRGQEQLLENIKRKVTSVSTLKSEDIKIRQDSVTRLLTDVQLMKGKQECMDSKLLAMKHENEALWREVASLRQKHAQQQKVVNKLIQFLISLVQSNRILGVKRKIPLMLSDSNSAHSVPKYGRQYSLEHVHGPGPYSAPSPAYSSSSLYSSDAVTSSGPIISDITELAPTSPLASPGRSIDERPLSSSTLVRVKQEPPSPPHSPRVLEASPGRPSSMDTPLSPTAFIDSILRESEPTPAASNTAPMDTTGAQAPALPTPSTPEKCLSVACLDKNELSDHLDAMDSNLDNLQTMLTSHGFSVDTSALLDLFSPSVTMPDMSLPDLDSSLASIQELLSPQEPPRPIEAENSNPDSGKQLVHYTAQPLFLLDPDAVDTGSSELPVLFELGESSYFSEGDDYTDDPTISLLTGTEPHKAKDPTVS

[10] = target: T3, Cytochrome P450 3A4 (Homo sapiens, UniProt P08684)
[11] = system: INS1; assay: INS-1E survival protection against cytokine death – cell-based, luminescence, retest, dose response (AID 449756); format: functional; conditions: Rattus norvegicus;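 also: cell death triggered by IL-1 beta plus TNF-alpha plus IFN-gamma mixture; protective hits raise ATP signal compared with cytokine alone wells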
[12] = target: T3, Cytochrome P450 3A4; conditions: Potency
[13] = system: Streptococcus; assay: GAS UMAA2166 growth inhibition – luminescence, BacTiterGlo, counter-screen for streptokinase expression inhibitor project, dose response (AID 1915); format: functional, organism-based;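 also: potency for reduction of bacterial viability or growth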
[14] = target: T4, Streptokinase A (Streptococcus pyogenes serotype M1, UniProt P10520); assay: viability-normalized secreted streptokinase activity reduction – plasminogen activation absorbance, OD405, dose response (AID 1914); format: functional, Streptococcus pyogenes M1 GAS;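 also: secreted streptokinase activity via plasminogen activation per viability signal from cell pellet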
T4 sequence (P10520 whole entry): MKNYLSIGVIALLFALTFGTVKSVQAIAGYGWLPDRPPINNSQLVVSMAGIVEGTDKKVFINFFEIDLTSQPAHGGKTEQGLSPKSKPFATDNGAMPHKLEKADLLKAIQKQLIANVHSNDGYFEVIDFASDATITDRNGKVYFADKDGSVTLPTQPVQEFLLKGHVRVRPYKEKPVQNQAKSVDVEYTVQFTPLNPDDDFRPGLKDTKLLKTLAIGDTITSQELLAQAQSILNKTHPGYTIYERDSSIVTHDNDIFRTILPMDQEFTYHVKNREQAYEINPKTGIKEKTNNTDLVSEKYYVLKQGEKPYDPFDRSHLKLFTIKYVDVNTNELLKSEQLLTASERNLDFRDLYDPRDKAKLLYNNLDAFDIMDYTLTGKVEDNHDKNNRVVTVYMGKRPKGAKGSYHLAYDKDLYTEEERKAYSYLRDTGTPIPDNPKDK

[15] = HEK-293T viability loss after treatment – luminescence, T-cell screen hits, cytotoxicity control for TCR NF-kB inhibitor project, dose response (AID 489026); format: functional, cell-based;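 also: cells exposed to compound about 14 hours before the viability readout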
[16] = system: Streptococcus sp. 'group A'; assay: Streptococcus pyogenes SK(-)GAS viability under kanamycin – luminescence, BacTiterGlo, confirmation, counter-screen for streptokinase expression inhibitor project, dose response (AID 1900); format: functional, organism-based
[17] = NIH3T3 cell viability loss – ATP luminescence, mouse fibroblasts, counter-screen, dose response (AID 2010); format: functional, cell-based;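 also: cells exposed to compound for about 90 hours before reading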
[18] = cells
[19] = Trypanosoma cruzi growth suppression in host cells – NIH3T3 host cells, beta-gal luminescence, confirmation (AID 2044); format: functional, cell-based;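 also: intracellular parasites grown in NIH/3T3 mouse fibroblasts as host cells; luminescent beta-galactosidase reporter signal from transgenic T. cruzi replicating inside host cells; inhibitors lower the luminescence signal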
[20] = target: Neurotensin receptor type 1 (Homo sapiens, UniProt P30989); format: functional;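 also: Image-based confirmatory dose-response assay measuring agonist activity at NTR1; NTR1-expressing U2OS osteosarcoma cells imaged for beta-arrestin GFP spot formation; agonist potency where compounds increase beta-arrestin recruitment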
[21] = target: NAD-dependent protein deacylase sirtuin-5, mitochondrial (Homo sapiens, UniProt Q9NXA8); assay: sirtuin-5 deacylation blockers, concentration series – biochemical, fluorescence imaging, cherry-pick, set 5, dose response (AID 720591);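 also: desuccinylation of succinyl peptide AMC substrate read as fluorescence after trypsin release; potency of inhibitors that lower fluorescence and may act on trypsin instead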
[22] = THP-1 cell cytotoxicity, dose response, cytotoxicity control for non-replicating M. tuberculosis project (AID 489025); format: functional
[23] = HepG2 cell cytotoxicity, dose response, cytotoxicity control for non-replicating M. tuberculosis project (AID 489018); format: functional; conditions: Mycobacterium tuberculosis
[24] = target: T5, Corticotropin-releasing factor receptor 2/Corticotropin-releasing factor-binding protein (Homo sapiens, UniProt P24387+Q13324); assay: Dose Response confirmation of uHTS hits for small molecule antagonists of the CRF-binding protein and CRF-R2 receptor complex.; format: functional; conditions: read-out: IC50_Mean
T5 sequence (Q13324 whole entry): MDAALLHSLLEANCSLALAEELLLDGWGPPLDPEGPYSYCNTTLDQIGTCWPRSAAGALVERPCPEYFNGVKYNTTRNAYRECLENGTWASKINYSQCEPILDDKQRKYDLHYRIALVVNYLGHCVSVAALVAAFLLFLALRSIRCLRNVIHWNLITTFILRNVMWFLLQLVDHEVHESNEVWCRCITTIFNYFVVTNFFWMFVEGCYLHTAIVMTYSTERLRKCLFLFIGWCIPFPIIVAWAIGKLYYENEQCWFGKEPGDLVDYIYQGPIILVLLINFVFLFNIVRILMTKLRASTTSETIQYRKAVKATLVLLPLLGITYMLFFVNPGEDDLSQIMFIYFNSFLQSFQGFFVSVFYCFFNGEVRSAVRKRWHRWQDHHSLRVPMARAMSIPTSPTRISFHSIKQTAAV
T5 sequence (P24387 whole entry): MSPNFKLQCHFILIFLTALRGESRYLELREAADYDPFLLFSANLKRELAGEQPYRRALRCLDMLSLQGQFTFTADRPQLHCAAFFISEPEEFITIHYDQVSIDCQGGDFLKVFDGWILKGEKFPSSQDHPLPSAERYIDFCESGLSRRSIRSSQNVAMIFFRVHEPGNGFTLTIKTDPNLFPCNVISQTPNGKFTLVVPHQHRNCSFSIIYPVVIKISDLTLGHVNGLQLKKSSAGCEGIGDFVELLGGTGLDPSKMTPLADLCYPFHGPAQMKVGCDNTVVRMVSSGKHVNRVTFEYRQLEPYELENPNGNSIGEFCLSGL

[25] = target: T5, Corticotropin-releasing factor receptor 2/Corticotropin-releasing factor-binding protein; assay: activators of CRF receptor 2 with binding protein – uHTS hits, confirmation (AID 602473); format: functional; conditions: read-out: EC50_Mean

Sequence of Ion channel NompC (Q7T1G6 whole entry): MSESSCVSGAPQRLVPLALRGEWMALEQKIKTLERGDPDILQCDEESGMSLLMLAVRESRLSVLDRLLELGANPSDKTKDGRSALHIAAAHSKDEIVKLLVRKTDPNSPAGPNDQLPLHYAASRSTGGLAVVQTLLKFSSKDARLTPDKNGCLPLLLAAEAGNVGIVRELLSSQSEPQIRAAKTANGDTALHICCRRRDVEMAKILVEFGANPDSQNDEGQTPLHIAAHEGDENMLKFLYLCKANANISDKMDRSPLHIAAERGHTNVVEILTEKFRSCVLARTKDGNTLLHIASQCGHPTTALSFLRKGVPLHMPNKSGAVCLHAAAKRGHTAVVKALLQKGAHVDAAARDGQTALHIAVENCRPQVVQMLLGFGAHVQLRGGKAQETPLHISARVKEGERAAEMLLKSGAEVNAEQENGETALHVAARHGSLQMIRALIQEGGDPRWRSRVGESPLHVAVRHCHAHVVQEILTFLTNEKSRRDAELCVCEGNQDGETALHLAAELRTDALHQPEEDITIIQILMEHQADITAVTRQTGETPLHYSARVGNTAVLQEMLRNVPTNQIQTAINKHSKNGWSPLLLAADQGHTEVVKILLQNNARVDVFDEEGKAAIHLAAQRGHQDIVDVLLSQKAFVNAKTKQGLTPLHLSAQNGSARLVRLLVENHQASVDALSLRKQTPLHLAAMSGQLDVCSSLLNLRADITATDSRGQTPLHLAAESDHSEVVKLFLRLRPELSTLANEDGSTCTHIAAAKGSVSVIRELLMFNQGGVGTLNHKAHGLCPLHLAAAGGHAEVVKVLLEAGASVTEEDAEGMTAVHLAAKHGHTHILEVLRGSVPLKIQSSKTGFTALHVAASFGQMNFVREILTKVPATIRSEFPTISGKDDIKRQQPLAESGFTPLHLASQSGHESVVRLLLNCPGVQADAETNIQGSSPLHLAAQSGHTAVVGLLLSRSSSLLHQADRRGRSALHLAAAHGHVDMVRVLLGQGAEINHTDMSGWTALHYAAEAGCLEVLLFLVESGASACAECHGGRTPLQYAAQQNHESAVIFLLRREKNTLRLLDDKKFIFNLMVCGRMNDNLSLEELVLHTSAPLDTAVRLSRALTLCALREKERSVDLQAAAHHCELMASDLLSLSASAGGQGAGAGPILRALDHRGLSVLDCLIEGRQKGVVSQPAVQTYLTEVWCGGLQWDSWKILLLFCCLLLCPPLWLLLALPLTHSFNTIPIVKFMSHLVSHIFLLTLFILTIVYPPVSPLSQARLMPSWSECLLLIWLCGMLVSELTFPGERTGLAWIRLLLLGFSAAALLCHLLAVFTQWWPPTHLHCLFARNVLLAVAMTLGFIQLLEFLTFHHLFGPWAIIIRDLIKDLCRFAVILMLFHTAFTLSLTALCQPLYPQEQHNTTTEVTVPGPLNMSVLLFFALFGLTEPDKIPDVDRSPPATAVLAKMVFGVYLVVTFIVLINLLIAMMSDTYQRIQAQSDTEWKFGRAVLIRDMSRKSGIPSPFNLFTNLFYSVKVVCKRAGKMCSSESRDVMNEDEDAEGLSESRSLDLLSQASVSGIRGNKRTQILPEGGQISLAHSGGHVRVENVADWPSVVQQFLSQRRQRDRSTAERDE
Sequence of Voltage-dependent T-type calcium channel subunit alpha-1H (O95180 whole entry): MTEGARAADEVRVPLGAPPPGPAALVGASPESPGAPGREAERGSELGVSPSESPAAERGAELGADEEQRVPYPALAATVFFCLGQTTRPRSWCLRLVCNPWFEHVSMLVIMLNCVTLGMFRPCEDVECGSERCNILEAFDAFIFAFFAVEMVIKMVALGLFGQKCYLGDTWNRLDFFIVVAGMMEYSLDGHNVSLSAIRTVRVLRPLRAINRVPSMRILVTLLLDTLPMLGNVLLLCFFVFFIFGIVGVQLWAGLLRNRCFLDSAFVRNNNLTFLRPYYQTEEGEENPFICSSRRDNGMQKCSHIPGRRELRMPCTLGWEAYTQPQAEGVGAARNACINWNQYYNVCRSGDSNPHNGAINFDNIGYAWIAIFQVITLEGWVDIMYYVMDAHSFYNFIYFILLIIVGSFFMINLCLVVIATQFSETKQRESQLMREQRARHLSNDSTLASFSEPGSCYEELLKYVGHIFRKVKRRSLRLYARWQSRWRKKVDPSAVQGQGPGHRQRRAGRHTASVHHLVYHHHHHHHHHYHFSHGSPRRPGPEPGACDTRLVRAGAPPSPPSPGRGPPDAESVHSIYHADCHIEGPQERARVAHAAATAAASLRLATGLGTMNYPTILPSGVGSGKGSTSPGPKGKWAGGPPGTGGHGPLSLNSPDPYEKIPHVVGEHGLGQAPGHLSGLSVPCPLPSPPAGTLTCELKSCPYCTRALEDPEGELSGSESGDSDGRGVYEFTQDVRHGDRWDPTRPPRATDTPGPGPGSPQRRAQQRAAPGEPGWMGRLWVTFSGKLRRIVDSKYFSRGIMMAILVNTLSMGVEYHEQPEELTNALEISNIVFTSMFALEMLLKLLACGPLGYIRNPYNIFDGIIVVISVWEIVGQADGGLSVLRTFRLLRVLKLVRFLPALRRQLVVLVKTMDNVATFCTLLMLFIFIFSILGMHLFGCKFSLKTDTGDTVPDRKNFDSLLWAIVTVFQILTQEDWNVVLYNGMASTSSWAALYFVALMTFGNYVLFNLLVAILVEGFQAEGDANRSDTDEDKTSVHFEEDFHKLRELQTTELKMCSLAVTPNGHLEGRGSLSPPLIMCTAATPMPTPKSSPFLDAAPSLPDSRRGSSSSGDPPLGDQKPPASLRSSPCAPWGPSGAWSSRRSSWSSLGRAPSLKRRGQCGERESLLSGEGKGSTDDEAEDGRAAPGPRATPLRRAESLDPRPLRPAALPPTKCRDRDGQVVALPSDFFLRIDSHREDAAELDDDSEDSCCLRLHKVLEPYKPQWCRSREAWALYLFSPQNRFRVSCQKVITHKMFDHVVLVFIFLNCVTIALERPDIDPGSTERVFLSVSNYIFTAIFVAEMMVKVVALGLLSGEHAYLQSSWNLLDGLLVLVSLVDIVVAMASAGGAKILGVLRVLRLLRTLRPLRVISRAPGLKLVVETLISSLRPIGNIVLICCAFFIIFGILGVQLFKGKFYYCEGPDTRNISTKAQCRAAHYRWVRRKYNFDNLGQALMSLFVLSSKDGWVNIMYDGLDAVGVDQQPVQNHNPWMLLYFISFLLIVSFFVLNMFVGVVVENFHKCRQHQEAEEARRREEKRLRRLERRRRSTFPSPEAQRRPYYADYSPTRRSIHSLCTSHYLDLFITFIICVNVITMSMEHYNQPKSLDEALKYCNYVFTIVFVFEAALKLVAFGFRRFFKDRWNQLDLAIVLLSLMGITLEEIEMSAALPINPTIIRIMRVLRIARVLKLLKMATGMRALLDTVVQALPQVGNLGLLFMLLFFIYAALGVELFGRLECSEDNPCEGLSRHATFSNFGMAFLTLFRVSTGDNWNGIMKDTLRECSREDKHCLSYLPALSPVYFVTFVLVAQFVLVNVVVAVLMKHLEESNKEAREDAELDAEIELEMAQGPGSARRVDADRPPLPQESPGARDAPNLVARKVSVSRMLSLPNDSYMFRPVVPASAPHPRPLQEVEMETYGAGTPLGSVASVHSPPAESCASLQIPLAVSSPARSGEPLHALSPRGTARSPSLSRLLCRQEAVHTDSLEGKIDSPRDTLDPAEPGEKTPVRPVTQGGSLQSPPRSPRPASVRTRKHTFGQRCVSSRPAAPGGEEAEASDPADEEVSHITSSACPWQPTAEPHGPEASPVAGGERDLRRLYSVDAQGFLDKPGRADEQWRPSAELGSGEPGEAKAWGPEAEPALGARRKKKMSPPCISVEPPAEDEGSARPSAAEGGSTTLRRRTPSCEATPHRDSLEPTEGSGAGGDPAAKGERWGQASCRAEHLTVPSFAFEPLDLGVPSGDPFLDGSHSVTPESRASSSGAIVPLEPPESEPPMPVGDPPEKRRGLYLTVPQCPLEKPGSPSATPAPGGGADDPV
T3 sequence (P08684 whole entry): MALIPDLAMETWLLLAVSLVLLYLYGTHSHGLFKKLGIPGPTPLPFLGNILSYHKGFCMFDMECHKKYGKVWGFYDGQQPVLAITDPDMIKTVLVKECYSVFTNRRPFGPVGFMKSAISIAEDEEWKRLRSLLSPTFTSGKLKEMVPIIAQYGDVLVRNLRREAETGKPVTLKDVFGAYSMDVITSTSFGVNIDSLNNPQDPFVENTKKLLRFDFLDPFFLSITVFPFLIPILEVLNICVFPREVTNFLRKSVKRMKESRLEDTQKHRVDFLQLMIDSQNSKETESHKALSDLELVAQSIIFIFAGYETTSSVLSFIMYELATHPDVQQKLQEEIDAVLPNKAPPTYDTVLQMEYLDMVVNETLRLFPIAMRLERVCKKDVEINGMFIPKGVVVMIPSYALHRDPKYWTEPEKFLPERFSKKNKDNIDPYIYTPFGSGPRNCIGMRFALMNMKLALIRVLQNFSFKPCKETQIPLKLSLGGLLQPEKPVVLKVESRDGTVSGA
Sequence of NAD-dependent protein deacylase sirtuin-5, mitochondrial (Q9NXA8 whole entry): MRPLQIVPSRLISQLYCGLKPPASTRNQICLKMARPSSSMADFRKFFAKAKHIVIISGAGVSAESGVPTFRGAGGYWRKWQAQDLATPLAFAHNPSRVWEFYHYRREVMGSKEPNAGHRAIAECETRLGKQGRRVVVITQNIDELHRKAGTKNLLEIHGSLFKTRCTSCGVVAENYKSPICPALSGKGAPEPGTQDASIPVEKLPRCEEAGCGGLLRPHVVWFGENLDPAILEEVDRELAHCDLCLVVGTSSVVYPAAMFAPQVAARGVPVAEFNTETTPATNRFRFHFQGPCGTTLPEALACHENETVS

C=CCOc1ccc2c(c1)c(S(=O)(=O)c1ccc(C)cc1)cn2COC
EC50 [1]: > 29.9 µM (not active) | EC50 [2]: 1.16 µM (active)

O=C1C=CC(=O)N1c1ccc(Sc2ccc([N+](=O)[O-])cc2)cc1
EC50 [3]: 24.7 µM (active) | EC50 [4]: 7.87 µM (active) | EC50 [5]: 21 µM (active) | EC50 [6]: > 75 µM (inconclusive)

Cc1ccc(S(=O)(=O)N(C)CC(=O)ONC(=N)c2cccc([N+](=O)[O-])c2)cc1
EC50 [1]: > 29.9 µM (not active) | EC50 [2]: 12.1 µM (not active)

Cc1ccc2c(c1)C(O)(c1c(C)[nH]c3ccccc13)C(=O)N2 (stereo unspecified)
EC50 [7]: 8.82 µM (active)

CCOC(=O)c1c(N2C(=O)C=CC2=O)sc(C)c1C
IC50 [8]: > 66.6 µM (inactive) | EC50 [9]: 4.22 µM (active)

C=CCN(CC=C)CC(O)Cn1c2ccccc2c2ccccc21 (stereo unspecified)
AC50 [10]: 28.2 µM (inconclusive) | AC50 [11]: > 120 µM (inactive) | EC50 [7]: 9.06 µM (active)

C=C1C(=O)OC2C1CC/C(C)=C/CCC1(C)OC21 (stereo unspecified)
AC50 [12]: 25.1 µM (inconclusive)

CNC(=O)[C@H](C)/C=C(\c1cccnc1)C(NC(=O)OCc1ccccc1)c1ccc(C(=O)OC)cc1 (stereo partly specified)
AC50 [12]: 20 µM (inconclusive)

COC(=O)c1cnc(Oc2ccc(NC(=O)NC(=O)c3c(F)cccc3Cl)cc2)cc1C(F)(F)F
EC50 [13]: > 150 µM (not active) | EC50 [14]: 1.95 µM (active) | EC50 [3]: 3.69 µM (inconclusive) | EC50 [4]: 1.08 µM (active) | EC50 [5]: 36.1 µM (inconclusive) | IC50 [15]: > 80 µM (inactive) | EC50 [16]: 49 µM (active) | EC50 [6]: 19.9 µM (active)

COc1c2c(cc3c1OCO3)C13C=CC(OC)CC1N(C2)CC3O (stereo unspecified)
AC50 [12]: 39.8 µM (inconclusive)

Cc1nc2c(Cl)cccc2c(O)c1CN1CCCCCC1
EC50 [17]: > 60 µM (not active) | EC50 [18]: 0.046 µM (active) | EC50 [19]: < 0.1 µM (active)

O=C(N/N=C/c1ccc([N+](=O)[O-])o1)c1cn(-c2ccccc2)nc1-c1ccc(Cl)cc1
EC50 [17]: > 30 µM (not active) | EC50 [18]: 0.028 µM (active) | EC50 [19]: < 0.1 µM (active)

CC1CC(C)CN(CCOCCSc2ccccc2)C1 (stereo unspecified)
EC50 [17]: > 60 µM (inconclusive) | EC50 [18]: 0.09 µM (active) | EC50 [19]: < 0.1 µM (active)

C[C@H](NC(=O)c1[nH]cnc1C(=O)NCc1ccc(CNC(=O)OC(C)(C)C)cc1)C(=O)OCc1ccccc1
EC50 [20]: 19.4 µM (active)

Cc1cccc(-n2c(SCC(N)=O)nnc2-c2ccco2)c1
AC50 [21]: > 30 µM (inactive)

CN1CCN(c2ccc(C(=O)c3ccc(Br)cc3)cc2[N+](=O)[O-])CC1
EC50 [3]: > 150 µM (not active) | EC50 [4]: > 150 µM (not active) | EC50 [5]: > 150 µM (not active) | EC50 [6]: > 150 µM (not active)

COc1cc(C)nc(N(Cc2ccccc2)S(=O)(=O)c2ccc(C)cc2)n1
EC50 [1]: > 29.9 µM (not active) | EC50 [2]: 6.93 µM (active)

Cc1cc(Br)ccc1OCCCCN1CCCCC1
CC50 [22]: > 40 µM (active) | EC50 [17]: > 60 µM (not active) | CC50 [23]: > 20 µM (active) | EC50 [19]: 0.75 µM (active)

Cc1cc(CNC(=O)Cc2c(F)cccc2Cl)nn1C
AC50 [21]: > 30 µM (inactive)

CCN(CC)CCN(C(=O)CN1C(=O)c2ccccc2C1=O)c1nc2cc3c(cc2s1)OCO3
EC50 [17]: > 60 µM (not active) | EC50 [18]: 0.349 µM (active) | EC50 [19]: < 0.1 µM (active) | IC50 [24]: > 47.1 µM (inactive) | EC50 [25]: > 53 µM (inactive)

CCOc1cc(/C=C2/C(=O)ON=C2C)ccc1OCc1ccccc1
EC50 [20]: 23 µM (inactive)

CCc1ccccc1NC(=O)c1cc2sccc2n1C
EC50 [7]: 12 µM (active)

CC(=O)c1ccc(OC(=O)Cc2cccc3ccccc23)cc1
AC50 [21]: 10.4 µM (active)

COc1cc(C(=O)NNC(=O)C2CCC2)cc(OC)c1OC
AC50 [21]: 29.9 µM (active)
